The text below walks through data of paper PMC12336229, “Peptide-mimetics derived from leucyl-tRNA synthetase are potential agents for the therapy of mt-tRNA related diseases” (Frontiers in Pharmacology, 2025).

The subject of one data set is mutant cybrids. Briefly: Confocal fluorescence microscopy, co-localization with mitochondria (Mitotracker Red). The data set is classed as cell-based, human. As to conditions: Cy5 constructs 0.25 µM in glucose medium, imaged after 24 h, Mitotracker Red; mean ± SEM of at least five images. As to the method:
Previously established osteosarcoma-derived (143B.TK-) cybrid cell lines from patients, which bear either the m.3243A>G mutation in mt-tRNA^Leu(UUR) or the m.8344A>G mutation in mt-tRNA^Lys and controls ([Perli et al., 2014]; [Perli et al., 2016]; [Perli et al., 2020]) were used.
Constructs made of compounds listed in Table 1, comprising D-peptides linked to the Cy5 fluorophore via maleimide cross-linker, were administered to sub-confluent cybrid cell cultures at 0.25 µM in glucose medium. About 24 h after treatment with each construct, cells were incubated with 200 nM Mitotracker Red FM (LifeTechnologies Italia, Monza, Italy) for 30 min at 37°C.
Subsequently, cells were visualized by confocal microscopy. Images of 800 × 800 px (at 88 nm/px) were acquired at the Olympus iX83 FluoView1200 laser scanning confocal microscope using a 60 × NA1,35 oil objective (Olympus Italia SRL Milano, Italy), zoom 3×, 559 nm, and 635 nm lasers and filter setting for Mitotracker Red and Cy5. The fluorescence images were analysed with the ImageJ software ([Rasband, 2018]) to determine the Pearson’s correlation coefficient.
For a subset of experiments, we evaluated the mt localization of constructs up to 72 h after treatment. PMT and PMT fragments were administered to sub-confluent cybrids at a concentration of 0.25 µM in the glucose medium. At 24-, 48- and 72-h after treatment, cells were incubated with Mitotracker Red and visualized by confocal microscopy. After each confocal imaging section, a fresh glucose medium was added to the cells, which were maintained under standard conditions (a humidified atmosphere of 95% air and 5% CO2 at 37°C).

The nature of data set [1]: Plasma stability (UPLC-MS). The data set is classed as in vitro ADME, human. As to conditions: human EDTA plasma from four healthy volunteers, 37°C, gentle shaking, UPLC-MS (SIR); for remaining at 72 h, 0.2 mM: peak area vs time 0, read-out: Amount of detectable compound after incubation with human plasma. Here is the method: To assess whether the β32_33 peptide, PMT, PMT-8a and PMT-8b peptide-mimetics are stable in blood, we set up a chromatographic assay able to evaluate compound concentration after incubation in human plasma.
Four different samples from healthy volunteers were used. Blood was drawn by venepuncture in vacutainer containing EDTA as an anticoagulant. Plasma was separated by centrifugation and immediately used for the experiments. Each compound was dissolved in 500 μL plasma at a final concentration of 0.2 mM and split into two aliquots, one of which was immediately analysed to assess the basal compound level (T0); the other was incubated at 37°C under gentle shaking, and the amount of each compound was measured at different time points (i.e., 1.5, 3, 6 and 72 h).
To perform chromatographic analyses, the samples were treated with 3 volumes of acetonitrile containing 1% formic acid and then extracted by using the Ostro™ pass-through sample preparation system to remove proteins and phospholipids. Samples were dried under vacuum, resuspended in 100 μL of 0.1% formic acid containing 5% acetonitrile, and then injected directly onto the chromatographic column.
Chromatographic analyses were performed on a Water Acquity H-Class UPLC system (Waters, Milford, MA, United States), including a quaternary solvent manager (QSM), a sample manager with a flow-through needle system (FTN), a photodiode array detector (PDA) and a single-quadruple mass detector with electrospray ionization source (ACQUITY QDa). Analyses were performed on a reverse phase C18 column (75 mm × 3.2 mm i. d., 2.5 μm particle size). The mobile phase was solvent A, 0.1% formic acid in water, and solvent B, 0.1% formic acid in acetonitrile. The flow rate was 0.5 mL/min, the column temperature was set at 25°C and the elution was performed by linearly increasing the concentration of solvent B up to 70% in 7 min. Mass spectrometric detection was performed in the positive electrospray ionization mode, using nitrogen as the nebulizer gas. Analyses were performed in the Total Ion Current (TIC) mode with a mass range of 100–1200 m/z. The capillary voltage was 0.8 kV, cone voltage 8 V, ion source temperature 120°C and probe temperature 600°C. Quantification was performed by Selected Ion Recording (SIR): at m/z = 917.88, corresponding to the [M+2H]^2+ ion obtained from either β32_33 peptide or PMT; at m/z = 961.42, corresponding to the [M + H] ^+ obtained from PMT-8a; and at m/z = 869.48, corresponding to the [M + H]^+ ion obtained from PMT-8b.

The conditions of data set [2]: healthy animals; reached immediately, stable up to 24 h after injection; ref Peng et al., 2018; cited from earlier work. The text has this: PMT radiolabelling with ^64Cu allowed us to follow the in vivo distribution of the peptide in the body districts of healthy animals over time.

Square brackets hold non-standard residues; d marks the D form. Peptide text beside a SMILES is read from it.

For the compound `CC[C@H](C)[C@H](NC(=O)[C@H](CC(C)C)NC(=O)[C@H](C)NC(=O)[C@@H](NC(=O)[C@H](CCCNC(=N)N)NC(=O)[C@@H]1CCCN1C(=O)[C@H](CO)NC(=O)[C@H](CC(C)C)NC(=O)[C@H](Cc1ccccc1)NC(=O)[C@H](CO)NC(=O)[C@H](CCCCN)NC(=O)[C@@H](N)CCCCN)[C@@H](C)O)C(=O)N[C@@H](CC(N)=O)C(=O)N[C@@H](Cc1ccccc1)C(=O)N[C@@H](CC(C)C)C(=O)N[C@H](C(N)=O)C(C)C` [β32_33 peptide], the “Pearson's correlation coefficient (PCC), mt localization” value in the data set with mutant cybrids stood at 0.78 ± 0.06. Moreover, the metabolised at 1.5 h, 0.2 mM in data set [1] (1.5 h, peak area vs time 0, read-out: Decrease of amount of compound after incubation with human plasma) came out at 90%. The “Amount of detectable compound after incubation with human plasma” value in data set [1] (72 h, 0.2 mM, peak area vs time 0) is on record as “almost undetectable”.

Regarding `[64Cu]` [free ^64Cu], the “Radioactivity concentration in different cortical regions” value in data set [2] is 0.4–0.6 %ID/mL.

In the case of `CC[C@@H](C)[C@@H](NC(=O)[C@@H](CC(C)C)NC(=O)[C@@H](C)NC(=O)[C@H](NC(=O)[C@@H](CCCNC(=N)N)NC(=O)[C@H]1CCCN1C(=O)[C@@H](CO)NC(=O)[C@H](N)CC(C)C)[C@H](C)O)C(N)=O` [PMT-8b] (H-[dL][dS][dP][dR][dT][dA][dL][dI]-NH2), the remaining at 72 h, 0.2 mM in data set [1] (72 h) was above 85%.

For the compound `CC(C)C[C@@H](NC(=O)[C@@H](Cc1ccccc1)NC(=O)[C@@H](CO)NC(=O)[C@@H](CCCCN)NC(=O)[C@H](N)CCCCN)C(=O)N[C@H](CO)C(=O)N1CCC[C@@H]1C(=O)N[C@H](CCCNC(=N)N)C(N)=O` [PMT-8a] (H-[dK][dK][dS][dF][dL][dS][dP][dR]-NH2), the remaining at 72 h, 0.2 mM in data set [1] (72 h) is above 90%.
